The text below walks through data of patent US6423545B1, “Unmarked deletion mutants of mycobacteria and methods of using same” (Albert Einstein College of Medicine of Yeshiva University, priority 1999, dated 2002).

SMILES strings stand for the structures. Entries after “also recorded” stand apart in the source; their conditions may differ.

Assay [1] concerns M. bovis BCG substrain Pasteur. The assay is classed as cell-based, Mycobacterium bovis BCG.
A further assay deals with M. tuberculosis H37Rv. The format is cell-based, Mycobacterium tuberculosis.
The subject of another assay is E. coli. The settings on record: AEC alone; cited from earlier work.
The test system of the next assay is C. glutamicum. The settings on record: AEC alone versus with threonine; cited from earlier work.
In another assay the test system is aspartokinase. The settings on record: enzyme of the first step of the aspartate amino acid family pathway; cited from earlier work.

As for `NCCSC[C@H](N)C(=O)O` [AEC, S-(β-aminoethyl)-L-cysteine], the “inhibitory effect upon growth” value in assay [1] is “neither AEC or Thr alone have an inhibitory effect; also recorded: the combination of the two does inhibit growth, with BCG experiencing the greatest inhibition”; in the assay on M. tuberculosis H37Rv it was “neither AEC or Thr alone have an inhibitory effect; also recorded: the combination of the two does inhibit growth”. Besides, the values for the inhibition of growth entry with E. coli and in the assay with C. glutamicum were “capable of inhibiting the growth of E. coli” and “requires the addition of threonine to inhibit the growth of C. glutamicum”, respectively. Moreover, in the assay on aspartokinase, the inhibition of aspartokinase result is “inhibits aspartokinase”.

For the compound `C[C@@H](O)[C@H](N)C(=O)O` [Thr, threonine], the “inhibitory effect upon growth” value (in assay [1]; in the assay with M. tuberculosis H37Rv) was “neither AEC or Thr alone have an inhibitory effect” throughout.
